In the assay the target is Proto-oncogene tyrosine-protein kinase Src (Homo sapiens, UniProt P12931). Briefly: In vitro inhibition of Src protein tyrosine kinase using the Scintillation proximity kinase assay. Set-up: species or system Oryctolagus cuniculus. In general terms: Scintillation proximity formats need no separation of bound from free tracer.
Chain of Proto-oncogene tyrosine-protein kinase Src (P12931 2-536 limits assumed): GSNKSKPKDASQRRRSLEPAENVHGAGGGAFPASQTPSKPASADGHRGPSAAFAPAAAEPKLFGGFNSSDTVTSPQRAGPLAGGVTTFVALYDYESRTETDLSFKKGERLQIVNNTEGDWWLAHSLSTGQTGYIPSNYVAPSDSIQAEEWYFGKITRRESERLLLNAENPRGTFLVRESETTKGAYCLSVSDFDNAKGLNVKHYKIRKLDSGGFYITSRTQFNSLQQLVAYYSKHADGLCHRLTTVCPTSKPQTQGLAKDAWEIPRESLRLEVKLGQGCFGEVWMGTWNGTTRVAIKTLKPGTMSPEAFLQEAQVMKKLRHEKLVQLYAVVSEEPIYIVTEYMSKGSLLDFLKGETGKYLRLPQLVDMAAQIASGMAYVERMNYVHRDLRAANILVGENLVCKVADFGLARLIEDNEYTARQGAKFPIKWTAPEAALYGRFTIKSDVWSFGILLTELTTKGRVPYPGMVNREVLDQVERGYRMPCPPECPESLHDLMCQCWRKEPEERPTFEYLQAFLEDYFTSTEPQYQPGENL
Take `Cc1ccc(-c2nn(-c3cccc(C(=O)NCCCP(=O)(O)CP(=O)(O)O)c3)c3ncnc(N)c23)cc1`: inhibition was half-maximal at 400 nM (IC50).

Regarding `COc1cccc(-c2cn(-c3cccc(C(=O)O)c3)c3ncnc(N)c23)c1`, half-maximal inhibition (IC50) required 4000 nM.

For the molecule `COc1cccc(-c2cn(-c3ccc(C(=O)NCCCP(=O)(O)CP(=O)(O)O)cc3)c3ncnc(N)c23)c1`, it took 250 nM to reach half-maximal inhibition (IC50).

As for `COc1cccc(-c2cn(-c3ccc(C(=O)Nc4ccc(P(=O)(O)O)c(P(=O)(O)O)c4)cc3)c3ncnc(N)c23)c1`, the IC50 – broadly, the point on the concentration scale where inhibition reaches its midpoint – was 870 nM.

Molecule `Nc1ncnc2c1c(-c1cccc(O)c1)cn2-c1ccc(CCO)cc1` returned an IC50 of 40 nM.

`COc1cccc(-c2cn(-c3ccc(CCN(C)CCO)cc3)c3ncnc(N)c23)c1` came in with an IC50 of 160 nM.

Turning to `CN(CCOP(=O)(O)CP(=O)(O)O)CCc1ccc(-n2cc(-c3cccc(O)c3)c3c(N)ncnc32)cc1`, the half-maximal inhibitory concentration (IC50) was found to be 4 nM.

`CN(CCO)CCc1ccc(-n2cc(-c3cccc(O)c3)c3c(N)ncnc32)cc1` yielded an IC50 of 40 nM.

In the case of `COc1cccc(-c2cn(-c3ccc(C(=O)Nc4ccc(C(P(=O)(O)O)P(=O)(O)O)cc4)cc3)c3ncnc(N)c23)c1`, half-maximal inhibition (IC50) was put at 40000 nM.

`Nc1ncnc2c1c(-c1cccc(O)c1)nn2-c1cccc(P(=O)(O)CC(=O)O)c1` showed an IC50 of 20 nM.

As to `COc1cccc(-c2cn(-c3cccc(C(=O)Nc4ccc(C(P(=O)(O)O)P(=O)(O)O)cc4)c3)c3ncnc(N)c23)c1`, the 50% inhibitory concentration (IC50) was found to be 19000 nM.

On to `COc1cccc(-c2cn(-c3ccc(CCOP(=O)(O)CP(=O)(O)O)cc3)c3ncnc(N)c23)c1`, for which the IC50 was 700 nM.

In turn, `COc1cccc(-c2nn(-c3cccc(P(=O)(O)CC(=O)O)c3)c3ncnc(N)c23)c1` had an IC50 of 1600 nM.

On to `COc1cccc(-c2cn(-c3cccc(C(=O)Nc4ccc(P(=O)(O)O)c(P(=O)(O)O)c4)c3)c3ncnc(N)c23)c1`, for which half-maximal inhibition (IC50) was put at 2500 nM.

With `COc1cccc(-c2cn(-c3ccc(CCN(C)CCOP(=O)(O)CP(=O)(O)O)cc3)c3ncnc(N)c23)c1`, the IC50 amounted to 310 nM.

Regarding `COc1cccc(-c2cn(-c3ccc(C(=O)O)cc3)c3ncnc(N)c23)c1`, half-maximal inhibition (IC50) required 1500 nM.

`Cc1ccc(-c2nn(CCCCOP(=O)(O)CP(=O)(O)O)c3ncnc(N)c23)cc1`: the midpoint of inhibition, the IC50, lay at 680 nM.

`COc1cccc(-c2cn(-c3cccc(C(=O)NCCCP(=O)(O)CP(=O)(O)O)c3)c3ncnc(N)c23)c1` showed an IC50 of 360 nM.

On to `Cc1ccc(-c2nn(-c3cccc(C(=O)NCc4ccc(P(=O)(O)O)c(P(=O)(O)O)c4)c3)c3ncnc(N)c23)cc1`, for which the IC50 amounted to 320 nM.

Take `Nc1ncnc2c1c(-c1cccc(O)c1)cn2-c1ccc(CCOP(=O)(O)CP(=O)(O)O)cc1`: it took 60 nM to reach half-maximal inhibition (IC50).

(Values after ChEMBL document CHEMBL1136208, “Bone-targeted Src kinase inhibitors: novel pyrrolo- and pyrazolopyrimidine analogues” (Bioorg Med Chem Lett, 2003).)
